Patent US4472304A, “(Amido)N-substituted bleomycins, salts thereof and process for preparation thereof” (Nippon Kayaku Kabushiki Kaisha, priority 1981, dated 1984)
≈ marks a conversion by molar mass, not a printed value.

Assays:
[1] = molecular target: T1, bleomycin-inactivating enzyme (Rattus norvegicus, UniProt P70645); experiment: in vitro; conditions: liver extract
T1 sequence (P70645 1-454): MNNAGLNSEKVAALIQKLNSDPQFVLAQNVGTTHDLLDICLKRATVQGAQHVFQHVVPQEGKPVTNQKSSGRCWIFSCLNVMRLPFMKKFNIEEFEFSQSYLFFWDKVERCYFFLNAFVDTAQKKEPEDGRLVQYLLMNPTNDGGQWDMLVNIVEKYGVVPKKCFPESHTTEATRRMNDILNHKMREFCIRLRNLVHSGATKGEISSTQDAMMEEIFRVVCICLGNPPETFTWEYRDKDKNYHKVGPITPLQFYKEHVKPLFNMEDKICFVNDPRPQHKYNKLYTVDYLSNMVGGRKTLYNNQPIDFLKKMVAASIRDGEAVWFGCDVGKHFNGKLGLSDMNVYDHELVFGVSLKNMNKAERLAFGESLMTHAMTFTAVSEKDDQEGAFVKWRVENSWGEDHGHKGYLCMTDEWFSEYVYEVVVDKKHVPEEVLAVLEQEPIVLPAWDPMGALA

Bacillus subtilis = experiment: Antimicrobial activity against Bacillus subtilis (agar plate-cylinder); assay type: cell-based; conditions: standard bleomycin A2 (copper-free) assumed 1,000 mcg potency/mg
Procedure: (§1) 2. ANT[…] MYC[…] ATCC 607 AND BACILLUS SUBTILIS
(§2) The antimicrobial activity was tested against the captioned test organisms by the method of agar plate-cylinder. The activity was recorded on the assumption that the activity of standard sample of bleomycin A2 (copper-free form) is 1,000 mcg poteney/mg.

HeLa S3 cells = experiment: Growth inhibitory activity against cultured HeLa S3 cells; assay type: cell-based; conditions: Homo sapiens, HeLa S3, 72 h; Cu-free; 3 days; read-out: 50% Growth inhibitory concentration of Cu-free compd. against cultured HeLaS3 cells (ID50)
Procedure: 3. GROWTH INHIBITORY ACTIVITY AGAINST CULTURED HELA S3 CELLS
HeLa S3 cells were inoculated into a medium (MEM with 10% bovine serum) placed in a plastic petri dish. Two days thereafter, a bleomycin was added to the dish. After 3 days of breeding, the number of cells were counted. The percentage growth inhibition was calculated using the following equation:
Percentage inhibition (%)=100×(B-A)/(B-C) where A is the final number of cells after 3 days from the addition of test sample, B is the final number of cells in the control without addition of the test smaple, and C is the number of cells at the time of addition of the test sample.

[2] = test system: Mycobacterium smegmatis ATCC 607; experiment: Antimicrobial activity against Mycobacterium smegmatis ATCC 607 (agar plate-cylinder); assay type: cell-based; conditions: standard bleomycin A2 (copper-free) assumed 1,000 mcg potency/mg
Procedure: as §1, §2

[3] = molecular target: T1, bleomycin-inactivating enzyme; conditions: rated under conditions where inactivation of bleomycin B2 is 50%; 37° C., 40 minutes; residual activity against M. smegmatis ATCC 607
pulmonary fibrosis = experiment: Pulmonary toxicity (pulmonary fibrosis) in mice
[4] = ICR mice, 5 mg/kg i.p. once a day for 10 days, points 0, 1, 2, 4, 6

Row | Structure (SMILES) | metabolised at 40 min [1] [%] | IC50 (HeLa S3 cells) [µg/mL] | Resistance of Cu-free compound against inactivating enzyme (degree of inactivation) [3] | Antimicrobial potency of Cu-free compound against Bacillus subtilis (Bacillus subtilis) [mcg potency/mg] | Antimicrobial potency of Cu-free compound against Mycobacterium smegmatis ATCC 607 [2] [mcg potency/mg] | Incidence: Number of mice with pulmonary fibrosis (%) (pulmonary fibrosis; ICR mice, 5 mg/kg i.p. once a day for 10 days, 5 weeks observation) | Incidence: Number of mice with pulmonary fibrosis (pulmonary fibrosis; ICR mice, 5 mg/kg i.p. once a day for 10 days, 5 weeks observation, mice with fibrosis/total) | Grade: Total score of pulmonary fibrosis/total number of samples (pulmonary fibrosis; [4]) | Grade: Total score of pulmonary fibrosis/total number of samples (%) (pulmonary fibrosis; [4]) | Ratio (by comparison with "Bleomycin Complex") (pulmonary fibrosis; versus Bleomycin Complex)
1 | Cc1c(N)nc(C(CC(N)=O)NCC(N)C(N)=O)nc1C(=O)NC(C(=O)NC(C)C(O)C(C)C(=O)NC(C(=O)NCCc1nc(-c2nc(C(=O)NCCCCNC(=N)N)cs2)cs1)C(C)O)C(OC1OC(CO)C(O)C(O)C1OC1OC(CO)C(O)C(OC(N)=O)C1O)c1cnc[nH]1 (centres unmarked) [bleomycin B2, reference compound] | 50 | – | – | – | – | – | – | – | – | –
2 | CCNC(=O)C(N)CNC(CC(N)=O)c1nc(N)c(C)c(C(=O)NC(C(=O)NC(C)C(O)C(C)C(=O)NC(C(=O)NCCc2nc(-c3nc(C(=O)NCCc4c[nH]cn4)cs3)cs2)C(C)O)C(OC2OC(CO)C(O)C(O)C2OC2OC(CO)C(O)C(OC(N)=O)C2O)c2cnc[nH]2)n1 (centres unmarked) [Compound 2, 2-(4'-Imidazolyl)ethylamino-(amido)N--[ethyl]-BLM] | 15 to 24 | 0.98 (≈ 0.683 µM) | – | 767 | 1895 | – | – | – | – | –

Second part, led by results:

Row | metabolised at 40 min [1] [%] | IC50 (HeLa S3 cells) [µg/mL] | Resistance of Cu-free compound against inactivating enzyme (degree of inactivation) [3] | Structure (SMILES) | Antimicrobial potency of Cu-free compound against Bacillus subtilis (Bacillus subtilis) [mcg potency/mg] | Antimicrobial potency of Cu-free compound against Mycobacterium smegmatis ATCC 607 [2] [mcg potency/mg] | Incidence: Number of mice with pulmonary fibrosis (%) (pulmonary fibrosis; ICR mice, 5 mg/kg i.p. once a day for 10 days, 5 weeks observation) | Incidence: Number of mice with pulmonary fibrosis (pulmonary fibrosis; ICR mice, 5 mg/kg i.p. once a day for 10 days, 5 weeks observation, mice with fibrosis/total) | Grade: Total score of pulmonary fibrosis/total number of samples (pulmonary fibrosis; [4]) | Grade: Total score of pulmonary fibrosis/total number of samples (%) (pulmonary fibrosis; [4]) | Ratio (by comparison with "Bleomycin Complex") (pulmonary fibrosis; versus Bleomycin Complex)
3 | 5 to 14 | 1.2 (≈ 0.845 µM) | – | CNC(=O)C(N)CNC(CC(N)=O)c1nc(N)c(C)c(C(=O)NC(C(=O)NC(C)C(O)C(C)C(=O)NC(C(=O)NCCc2nc(-c3nc(C(=O)NCCc4c[nH]cn4)cs3)cs2)C(C)O)C(OC2OC(CO)C(O)C(O)C2OC2OC(CO)C(O)C(OC(N)=O)C2O)c2cnc[nH]2)n1 (centres unmarked) [Compound 1, 2-(4'-Imidazolyl)ethylamino-(amido)N--[methyl]-BLM] | 654 | 1447 | – | – | – | – | –
4 | – | – | + +++ | CCN(CC)CCCC(C)NC(=O)C(N)CNC(CC(N)=O)c1nc(N)c(C)c(C(=O)NC(C(=O)NC(C)C(O)C(C)C(=O)NC(C(=O)NCCc2nc(-c3nc(C(=O)NCCCNC(C)c4ccccc4)cs3)cs2)C(C)O)C(OC2OC(CO)C(O)C(O)C2OC2OC(CO)C(O)C(OC(N)=O)C2O)c2cnc[nH]2)n1 [Compound 36, 3-((S)-1'-phenylethylamino)propylamino-(amido)N--[4-diethylamino-1-methylbutyl]-BLM] | 3694 | 6061 | – | – | – | – | –
5 | – | – | +++ + | CCCCN(CCCC)CCCNC(=O)C(N)CNC(CC(N)=O)c1nc(N)c(C)c(C(=O)NC(C(=O)NC(C)C(O)C(C)C(=O)NC(C(=O)NCCc2nc(-c3nc(C(=O)NCCC[N+](CC)(CC)CCCN(Cc4ccccc4)Cc4ccccc4)cs3)cs2)C(C)O)C(OC2OC(CO)C(O)C(O)C2OC2OC(CO)C(O)C(OC(N)=O)C2O)c2cnc[nH]2)n1 (centres unmarked) [Compound 57, 3-{N,N--diethyl-N--[3-(dibenzylamino)propyl]amino}propylamino-(amido)N--[3-(di-n-butylamino)propyl]-BLM] | 1831 | 25924 | 0 | 0/9 | 0/27 | 0 | 0
